Measured values from US20260199485A1, “RNA DEGRADERS AND USES THEREOF” (Arrakis Therapeutics, Inc., priority 2022, published 2026).
{DBCO-TEG} = DBCO-TEG group for click conjugation of the bait; l = locked nucleic acid (LNA); d = 2'-deoxy (DNA)

How the values were obtained:
[1] = test system: Renilla STAT3 3′UTR reporter; test: Cellular dual luciferase reporter assay (Renilla STAT3 3′UTR reporter, tagged CNOT7) in H1299 cells; format: cell-based; details: 10 nM, 30 nM, 100 nM ASO-bait, 24 hours, with CNOT7, relative to non-targeting ASO-bait
Text: Reporter constructs for cellular assays are depicted in FIG. 12. A luciferase reporter construct was designed to the 3′ UTR of STAT3 fused to Renilla luciferase, which contains the PEST and CP1 destabilizing domains. A second luciferase reporter construct was designed using the 3′UTR of HBB fused to Firefly luciferase, which contains the PEST and CP1 destabilizing domains. The reporter design for both constructs was previously described in Luo E C, et al. Nat Struct Mol Biol. 2020; 27(10):989-1000.
An antisense oligo was conjugated to the bait molecule AP1867, which binds FKPB12 via click-chemistry to generate a heterobifunctional molecule (ASO-bait). The bait molecule was chemically modified to contain an azide to allow for click chemistry. […]
A model system to interrogate the ability of a bifunctional RNA binder—CNOT7 binder is depicted in FIG. 13. A parallel approach utilizing a luciferase readout together with mRNA expression analysis was employed to assess the bifunctional molecule's capability to recruit CNOT7 to target mRNA and mediate mRNA degradation. […] A parallel plate was assessed for cell viability using CellTiter Glo (Promega). Data was analyzed by normalizing reporter signal relative to normalizer signal, and this ratio was then normalized to GFP. […]

[2] = test system: STAT3 mRNA; test: Endogenous STAT3 mRNA expression assay (ddPCR) in H1299 cells expressing tagged CNOT7; format: cell-based; details: 200 nM ASO-bait, 24 hours, with CNOT7, relative to non-targeting ASO-bait and GFP control
Procedure: For the endogenous mRNA expression assay, H1299 cells were seeded in a 12-well plate the day before transfection. On the following day, the cells were transfected with the plasmid expressing tagged CNOT7 and incubated for 24 hours. The following day, cells were transfected with 200 nM of the targeting or non-targeting ASO-bait molecules and incubated for 24 hours. In addition, cells were also transfected with a known STAT3 silencing ASO as a positive control for STAT3 mRNA knockdown. Samples were directly lysed in-well for RNA purification using the Promega Maxwell Automated RNA Extractor, followed by single-strand cDNA synthesis. The resulting cDNA was serially diluted at 1:100, which was used in the ddPCR reaction with primers designed to STAT3 and housekeeping genes (CLTC and TBP), the sequences of which are shown below. Data were analyzed by normalizing STAT3 relative to the geomean of TBP and CLTC. All transfections were performed using Lipofectamine 3000 (Invitrogen). […] Thus, the bifunctional molecule is capable of accelerating the degradation of endogenously expressed RNA.

## targeting ASO-bait: "An antisense oligo was conjugated to the bait molecule AP1867"; oligonucleotide binds "a sequence in the 3′UTR of STAT3" (SEQ ID NO:3) (antisense GAAGTACACATTGG; sugars from the 5' end dldldldldldldl, all phosphorothioate, 5' {DBCO-TEG}, methylation of C not given here; Bait AP1867 attached by click chemistry to the 5' DBCO-TEG)
[1]
  reporter signal (Renilla STAT3 3′UTR normalized to Firefly HBB and GFP): reduction in reporter signal
[2]
  STAT3 expression (mRNA, ddPCR, normalized to TBP and CLTC): reduction in STAT3 expression
